The test system of this assay is L1210 leukemia ip in BDF1 mice, survival T/C. Put plainly: NCI In Vivo Anticancer Drug Screen. Data for tumor model L1210 Leukemia (intraperitoneal) in B6D2F1 (BDF1) mice. The note with it: endpoint: mean survival time, higher = longer survival. In short, it runs like this:
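Antitumor effect is assessed in tumor-bearing animals. Survival in the compound arm is compared with a vehicle-dosed control arm and expressed as their quotient.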

[1] abbreviates: dose: 50.0 mg/kg/injection, schedule: Q01DX001 (ip), vehicle: saline.
Where [2] appears, read: dose: 100.0 mg/kg/injection, schedule: Q01DX001 (ip), vehicle: saline.
[3] abbreviates: dose: 200.0 mg/kg/injection, schedule: Q01DX001 (ip), vehicle: saline.
Where [4] appears, read: dose: 400.0 mg/kg/injection, schedule: Q01DX001 (ip), vehicle: saline.

SMILES strings stand for the structures. Several values for one entry are separate records, joined by “and”; a condition that tells them apart may be missing. Identical values can stand only once. Toxic doses and inconclusive results are not listed.

In the case of `O=C(Nc1ccc(C(=O)Nc2nccs2)cc1)c1ccc(C(=O)Nc2ccc(C(=O)Nc3nccs3)cc2)c(Cl)c1`, the T/C is, setting by setting: (dose: 4.4 mg/kg/injection, schedule: Q01DX Z (ip), vehicle: saline) 106 % of control; (dose: 6.6 mg/kg/injection, schedule: Q01DX Z (ip), vehicle: saline) 97 % of control; (dose: 10.0 mg/kg/injection, schedule: Q01DX Z (ip), vehicle: saline) 97 % of control; (dose: 15.0 mg/kg/injection, schedule: Q01DX Z (ip), vehicle: saline) 93 % of control and 97 % of control and 106 % of control; (dose: 22.5 mg/kg/injection, schedule: Q01DX Z (ip), vehicle: saline) 104 % of control; (dose: 30.0 mg/kg/injection, schedule: Q01DX Z (ip), vehicle: saline) 100 % of control. Besides, the T/C is 111 % of control (dose: 33.75 mg/kg/injection, schedule: Q01DX Z (ip), vehicle: saline); 93 % of control (dose: 50.6 mg/kg/injection, schedule: Q01DX Z (ip), vehicle: saline); 97 % of control (dose: 60.0 mg/kg/injection, schedule: Q01DX Z (ip), vehicle: saline); 98 % of control and 100 % of control (dose: 120.0 mg/kg/injection, schedule: Q01DX Z (ip), vehicle: saline); 93 % of control (dose: 180.0 mg/kg/injection, schedule: Q01DX Z (ip), vehicle: saline); 92 % of control (dose: 270.0 mg/kg/injection, schedule: Q01DX Z (ip), vehicle: saline). Also, the T/C (dose: 400.0 mg/kg/injection, schedule: Q01DX Z (ip), vehicle: saline) is 93 % of control.
Regarding `CCOC(=O)C1OC12CCC(C(C)(C)C)CC2` (stereo not drawn), the T/C by setting is: (dose: 100.0 mg/kg/injection, schedule: Q01DX009 (ip), vehicle: saline with Tween-80) 95 % of control; (dose: 100.0 mg/kg/injection, schedule: Q04DX002 (ip), vehicle: saline with Tween-80) 100 % of control; (dose: 200.0 mg/kg/injection, schedule: Q01DX009 (ip), vehicle: saline with Tween-80) 91 % of control; (dose: 200.0 mg/kg/injection, schedule: Q04DX002 (ip), vehicle: saline with Tween-80) 100 % of control; (dose: 400.0 mg/kg/injection, schedule: Q01DX009 (ip), vehicle: saline with Tween-80) 88 % of control; (dose: 400.0 mg/kg/injection, schedule: Q04DX002 (ip), vehicle: saline with Tween-80) 93 % of control.
Consider `COc1ccccc1/C=N/Nc1nnc(N/N=C/c2ccccc2OC)c2ccccc12`, for which the T/C runs as follows: (dose: 50.0 mg/kg/injection, schedule: Q01DX001 (ip), vehicle: carboxymethylcellulose (CMC)) 107 % of control; (dose: 100.0 mg/kg/injection, schedule: Q01DX001 (ip), vehicle: carboxymethylcellulose (CMC)) 103 % of control; (dose: 200.0 mg/kg/injection, schedule: Q01DX001 (ip), vehicle: carboxymethylcellulose (CMC)) 101 % of control; (dose: 400.0 mg/kg/injection, schedule: Q01DX001 (ip), vehicle: carboxymethylcellulose (CMC)) 103 % of control.
Turning to `Nc1cc(C(=O)Nc2ccc(CCNC3=NCCN3)cc2)ccc1C(=O)Nc1ccc(CCNC2=NCCN2)cc1`, the T/C by setting is: (dose: 0.26 mg/kg/injection, schedule: Q01DX001 (ip), vehicle: water) 103 % of control; (dose: 0.4 mg/kg/injection, schedule: Q01DX001 (ip), vehicle: water) 101 % of control; (dose: 0.6 mg/kg/injection, schedule: Q01DX001 (ip), vehicle: water) 103 % of control; (dose: 0.93 mg/kg/injection, schedule: Q01DX001 (ip), vehicle: water) 101 % of control; (dose: 0.93 mg/kg/injection, schedule: Q01DX015 (ip), vehicle: water) 101 % of control; (dose: 1.87 mg/kg/injection, schedule: Q01DX015 (ip), vehicle: water) 119 % of control. Moreover, the T/C is, setting by setting: (dose: 3.75 mg/kg/injection, schedule: Q01DX015 (ip), vehicle: water) 156 % of control; (dose: 4.8 mg/kg/injection, schedule: Q01DX Z (oral), vehicle: water) 109 % of control; (dose: 7.5 mg/kg/injection, schedule: Q01DX015 (ip), vehicle: water) 216 % of control; (dose: 7.5 mg/kg/injection, schedule: Q01DX Z (ip), vehicle: water) 265 % of control; (dose: 7.5 mg/kg/injection, schedule: Q01DX Z (oral), vehicle: water) 113 % of control; (dose: 11.0 mg/kg/injection, schedule: Q01DX Z (oral), vehicle: water) 111 % of control. Also, the T/C is 97 % of control (dose: 15.0 mg/kg/injection, schedule: Q01DX015 (ip), vehicle: water); 104 % of control and 119 % of control (dose: 16.0 mg/kg/injection, schedule: Q01DX Z (oral), vehicle: water); 104 % of control (dose: 23.0 mg/kg/injection, schedule: Q01DX Z (oral), vehicle: water); 102 % of control (dose: 35.0 mg/kg/injection, schedule: Q01DX Z (oral), vehicle: water); 99 % of control and 115 % of control (dose: 55.0 mg/kg/injection, schedule: Q01DX Z (oral), vehicle: water); 114 % of control (dose: 85.0 mg/kg/injection, schedule: Q01DX Z (oral), vehicle: water). Further, the T/C is, setting by setting: (dose: 125.0 mg/kg/injection, schedule: Q01DX Z (oral), vehicle: water) 118 % of control; (dose: 190.0 mg/kg/injection, schedule: Q01DX Z (oral), vehicle: water) 104 % of control and 113 % of control.
Consider `Nc1cc(Br)cc2c1nc(NCCO)c1ccccc12`, for which the T/C is 118 % of control (dose: 50.0 mg/kg/injection, schedule: Q04DX003 (ip), vehicle: Klucel (hydroxypropylcellulose) (HPC)); 102 % of control (dose: 100.0 mg/kg/injection, schedule: Q04DX003 (ip), vehicle: Klucel (hydroxypropylcellulose) (HPC)); 97 % of control (dose: 200.0 mg/kg/injection, schedule: Q04DX003 (ip), vehicle: Klucel (hydroxypropylcellulose) (HPC)); 105 % of control (dose: 400.0 mg/kg/injection, schedule: Q04DX003 (ip), vehicle: Klucel (hydroxypropylcellulose) (HPC)).
For `O=C1CSC(c2ccccc2)N1c1ccccc1` (stereo not drawn), the T/C by setting is: under setting [1], 106 % of control; under setting [2], 118 % of control; under setting [3], 108 % of control; under setting [4], 100 % of control.
Consider `CC1CCCC(C)N1` (stereo not drawn), for which the T/C was 94 % of control (dose: 50.0 mg/kg/injection, schedule: Q01DX009 (ip), vehicle: saline); 96 % of control and 100 % of control (dose: 100.0 mg/kg/injection, schedule: Q01DX009 (ip), vehicle: saline); 110 % of control and 102 % of control (dose: 100.0 mg/kg/injection, schedule: Q04DX003 (ip), vehicle: saline); 94 % of control and 106 % of control (dose: 200.0 mg/kg/injection, schedule: Q01DX009 (ip), vehicle: saline); 102 % of control and 94 % of control (dose: 200.0 mg/kg/injection, schedule: Q04DX003 (ip), vehicle: saline); 95 % of control (dose: 400.0 mg/kg/injection, schedule: Q01DX009 (ip), vehicle: saline). Further, the T/C (dose: 400.0 mg/kg/injection, schedule: Q04DX003 (ip), vehicle: saline) was 87 % of control.
As for `CCCCCCCC/C=C\CCCCCCCCOC(N)=O`, the T/C is, setting by setting: (dose: 50.0 mg/kg/injection, schedule: Q01DX009 (ip), vehicle: other) 96 % of control; (dose: 100.0 mg/kg/injection, schedule: Q01DX009 (ip), vehicle: other) 94 % of control; (dose: 100.0 mg/kg/injection, schedule: Q04DX003 (ip), vehicle: saline with Tween-80) 100 % of control; (dose: 200.0 mg/kg/injection, schedule: Q01DX009 (ip), vehicle: other) 89 % of control; (dose: 200.0 mg/kg/injection, schedule: Q04DX003 (ip), vehicle: saline with Tween-80) 95 % of control.
As to `CCCCCCCCCCCCNC(=O)C[n+]1cccc(C(=O)N(C)C)c1`, the T/C is 93 % of control (dose: 5.0 mg/kg/injection, schedule: Q04DX003 (ip), vehicle: saline); 96 % of control (dose: 10.0 mg/kg/injection, schedule: Q04DX003 (ip), vehicle: saline); 93 % of control (dose: 20.0 mg/kg/injection, schedule: Q04DX003 (ip), vehicle: saline).
With `CCOC(=O)C1/C(=N\N=C2\c3c(nnp3N(CCOS(C)(=O)=O)CCOS(C)(=O)=O)C(C(=O)OCC)C(c3ccc(OC(C)=O)cc3)C2C(=O)OCC)c2c(nnp2N(CCOS(C)(=O)=O)CCOS(C)(=O)=O)C(C(=O)OCC)C1c1ccc(OC(C)=O)cc1` (stereo not drawn), the T/C runs as follows: under setting [1], 103 % of control; under setting [2], 109 % of control; under setting [3], 109 % of control; under setting [4], 107 % of control.
On to `CC(=O)OC1CCC2(C)C(C1)C(OC(C)=O)CC1C3CCC(c4cccc(=O)o4)C3(C)CCC12` (stereo not drawn), for which the T/C reads like this: (dose: 100.0 mg/kg/injection, schedule: Q01DX001 (sc), vehicle: steriod suspending solution) 101 % of control; (dose: 200.0 mg/kg/injection, schedule: Q01DX001 (sc), vehicle: steriod suspending solution) 102 % of control; (dose: 400.0 mg/kg/injection, schedule: Q01DX001 (sc), vehicle: steriod suspending solution) 112 % of control.

These data come from PubChem BioAssay AID248 (DTP/NCI, 2004).
